In general, IC50 refers to the concentration at which inhibition is half-maximal.

Our source for the IC50 values is publication PMC8387799, “Inhibition Effect of Extract of Psychotria viridiflora Stem on α-Amylase and α-Glucosidase and Its Application in Lowering the Digestibility of Noodles” (Frontiers in Nutrition, 2021).

The experiment has as its system T1, rat intestinal α-glucosidase.
T1 construct: gene Mgam; native; supernatant of PBS extract of commercial rat intestinal powder (crude mixture of brush-border glucosidases)
The experiment is described as follows: turbidity ([…] nm) of corn starch hydrolysis, AUC, microplate. The experiment is classed as biochemical. As to conditions: corn starch substrate; PBS, 37 °C preincubation 15 min.

Structures are written as SMILES. In brackets after ≈: the same amount, converted by molar mass.

Turning to `C[C@H]1O[C@H](O[C@H]2[C@H](O)[C@@H](O)[C@@H](O[C@H]3[C@H](O)[C@@H](O)C(O)O[C@@H]3CO)O[C@@H]2CO)[C@H](O)[C@@H](O)[C@@H]1N[C@H]1C=C(CO)[C@@H](O)[C@H](O)[C@H]1O` (stereo partly shown) [acarbose], the half-inhibitory concentration (IC50) was 2.27 ± 1.35 µg/mL (≈ 3.52 µM).
